Laboratory results taken from patent US20240174665A1, “CDK2 INHIBITORS AND USES THEREOF” (Kymera Therapeutics, Inc., priority 2022, published 2024).

Molecular target: T1, CDK2/CycE1 (Homo sapiens, UniProt P24941)
T1 construct: 1.5 nM CDK2/CycE1, amino acids 1-298/1-410, Carna BS; purchased Carna BS (Carna Biosciences) 04-165, lot 20CBS-0731B
Assay: CDK2 inhibition assay, PhosphoSens CSox-based Kinetic Assay Format (AssayQuant)
Assay type: biochemical
Conditions: 1.5 nM CDK2/CycE1, 1.5× Km ATP, 30 minute preincubation at 30° C., reaction 240 minutes; read-out: IC50 CDK2-CycE1 (AssayQuant) Using PhosphoSens ® CSox-based Kinetic Assay Format
Experimental: Inhibition of CDK2 was measured using PhosphoSens® CSox-based Kinetic Assay Format (AssayQuant Technologies) as follows:
• 2.5 μl 10× Inhibitor in 10% DMSO (3-fold titration in 10% DMSO for a final DMSO concentration of 1%) • […] Reaction Mix with ATP, DTT, & CSx Substrate • 30 minute preincubation at 30° C. • […] Enzyme dilution buffer (EDB) (1×) or Kinase (5× in EDB); Enzyme Dilution Buffer (EDB): 20 mM HEPES, pH 7.5, 0.01% Brij-35, 0.1 mM EGTA, 5% Glycerol, 1.0 mg/ml BSA, 1.0 mM DTT • 25 μL Final reaction volume • Reaction was run at 30° C. for 240 minutes
• 54 mM HEPES, pH 7.5 • 1.5× Km ATP (see ATP TAB) • 1.2 mM DTT • 0.012% Brij-35 • 0.52 mM EGTA • 1% glycerol • 0.2 mg/ml BSA • 10 mM MgCl2 • 15 μM AQT0297
Reactions were run in Corning, low volume 384-well, white flat round bottom polystyrene NBS microplates (Cat. #3824) after sealing using optically-clear adhesive film (TopSealA-Plus plate seal, PerkinElmer [Cat. #6050185])
The letter codes for CDK2 inhibition include: A (<100 nM), B (≥100-500 nM), C (>500-1000 nM), and D (>1000 nM).

Row | SMILES | IC50 [nM]
1 | CNS(=O)(=O)c1ccc(Nc2ncc(C(F)(F)F)c(-c3cnc(C)n3C(C)C)n2)c(C)c1 [I-265] | 100 to 500
2 | CCS(=O)(=O)c1ccc(Nc2ncc(C(F)(F)F)c([C@H]3CC[C@@](C)(O)CC3)n2)c(C)c1 [I-40] | > 1000
3 | CCS(=O)(=O)c1ccc(Nc2ncc3cc(C(F)(F)F)c(=O)n(C4CCCC4)c3n2)c(C)c1 [I-53] | 500 to 1000
4 | CCS(=O)(=O)c1ccc(Nc2ncc3cc(C(F)F)c(=O)n(C(C)C)c3n2)c(C)c1 [I-31] | > 1000
5 | Cc1cc(CS(C)(=N)=O)ccc1Nc1ncc2cc(Cl)c(=O)n(C(C)C)c2n1 (stereo not drawn) [I-207] | 100 to 500
6 | CCS(=N)(=O)c1ccc(Nc2ncc3cc(Cl)c(=O)n(C(C)C)c3n2)c(C)c1 (stereo not drawn) [I-208] | 100 to 500
7 | CNS(=O)(=O)c1ccc(Nc2ncc3cc(Cl)c(=O)n(C(C)C)c3n2)c(C)c1 [I-247] | < 100
8 | Cc1cc(S(N)(=O)=O)ccc1Nc1ncc(C(F)(F)F)c(-c2cnn(C)c2)n1 [I-272] | < 100
9 | CNS(=O)(=O)c1ccc(Nc2ncc(C(F)(F)F)c(C3CCCCC3)n2)c(C)c1 [I-68] | > 1000
10 | Cn1cc(S(=O)(=O)N2CCC(Nc3ncc4c(n3)N([C@@H]3CCC[C@@]3(C)O)C(=O)C43CC3)CC2)cn1 [I-254] | < 100
11 | CNS(=O)(=O)c1ccc(Nc2ncc(C(F)(F)F)c(-c3cn(C(C)C)c(C)n3)n2)c(C)c1 [I-266] | < 100
12 | CCS(=O)(=O)c1ccc(Nc2ncc3cc(F)c(=O)n(C4CCCC4)c3n2)c(C)c1 [I-52] | 100 to 500
13 | CNS(=O)(=O)c1ccc(Nc2ncc3cc(C(F)F)c(=O)n([C@@H]4CCC[C@@]4(C)O)c3n2)c(C)c1 [I-256] | < 100
14 | CCS(=O)(=O)c1ccc(Nc2ncc3cc(Cl)c(=O)n(C(C)C)c3n2)c(C)c1 [I-30] | 100 to 500
15 | CC(=O)N(c1ccc(-c2cnn(C)c2)cc1)[C@H]1CC[C@H](Nc2ncc3cc(Cl)c(=O)n(C(C)C)c3n2)CC1 [I-228] | 100 to 500
16 | CNS(=O)(=O)c1ccc(Nc2ncc3cc(C(F)F)c(=O)n(C4CCCC4)c3n2)c(C)c1 [I-242] | < 100
17 | Cc1cc(S(=O)(=O)C2CCC3(CC2)CN(C)C3)ccc1Nc1ncc2cc(Cl)c(=O)n(C3CCCC3)c2n1 [I-41] | < 100
18 | CCS(=O)(=O)c1ccc(Nc2nccc(-c3cnc(C)n3C(C)C)n2)c(C)c1 [I-29, N-(4-ethylsulfonyl-2-methyl-phenyl)-4-(3-isopropyl-2-methyl-imidazol-4-yl) pyrimidin-2-amine] | 100 to 500
19 | CNS(=O)(=O)c1ccc(Nc2ncc3ccc(=O)n(C4CCCC4)c3n2)c(C)c1 [I-252] | < 100
20 | COCc1cc(-c2ccc(Nc3ncc4cc(Cl)c(=O)n(C(C)C)c4n3)c(C)c2)n(C)n1 [I-210] | > 1000

Row | SMILES | IC50 [nM]
21 | COC1CC2(CCC(Nc3ncc4cc(Cl)c(=O)n(C5CCCC5)c4n3)CC2)C1 (stereo not drawn) [I-239] | > 1000
22 | Cc1cc(CS(C)(=O)=O)ccc1Nc1ncc2cc(Cl)c(=O)n(C(C)C)c2n1 [I-197] | > 1000
23 | CC(C)(O)c1cccc2cnc(NC3CCN(S(C)(=O)=O)CC3)cc12 [I-212] | 100 to 500
24 | CNS(=O)(=O)c1ccc(Nc2ncc(C(F)(F)F)c([C@H]3CC[C@@](C)(O)CC3)n2)c(C)c1 [I-67] | < 100
25 | CC(C)c1cccc2cnc(NC3CCN(S(C)(=O)=O)CC3)nc12 [I-215] | < 100
26 | CCS(=O)(=O)c1ccc(Nc2ncc3c(n2)N(C2CCCC2)C(=O)C32CC2)c(C)c1 [I-35] | < 100
27 | CCS(=O)(=O)c1ccc(Nc2ncc(C(F)(F)F)c([C@H]3CC[C@](C)(O)CC3)n2)c(C)c1 [I-43] | > 1000
28 | CCS(=O)(=O)c1ccc(Nc2ncc(C(F)(F)F)c(-c3cnn(C)c3C(F)F)n2)c(C)c1 [I-45] | 500 to 1000
29 | CNS(=O)(=O)c1ccc(Nc2nc(OC3CCCCC3)c3ncsc3n2)c(C)c1 [I-234] | > 1000
30 | CNS(=O)(=O)c1ccc(Nc2ncc(C(F)(F)F)c(-c3cnn(C)c3C(F)F)n2)c(C)c1 [I-267] | 100 to 500
31 | CC(=O)N1CCC(Nc2ncc3cc(Cl)c(=O)n(C(C)C)c3n2)CC1 [I-235] | 500 to 1000
32 | CNS(=O)(=O)c1ccc(Nc2nccc(-c3cnc(C)n3C(C)C)n2)c(C)c1 [I-269] | < 100
33 | CCS(=O)(=O)c1ccc(Nc2ncc(C(F)(F)F)c(-c3cn(C(C)C)c(C)n3)n2)c(C)c1 [I-44] | < 100
34 | CCS(=O)(=O)c1ccc(Nc2ncc(C(F)(F)F)c(-c3cnn(C)c3)n2)c(C)c1 [I-27, N-(4-ethylsulfonyl-2-methyl-phenyl)-4-(1-methylpyrazol-4-yl)-5-(trifluoromethyl) pyrimidin-2-amine] | < 100
35 | CNS(=O)(=O)c1ccc(Nc2ncc(C(F)(F)F)c(C3CCOCC3)n2)c(C)c1 [I-271] | 500 to 1000
36 | CNS(=O)(=O)c1ccc(Nc2ncc3cc(Cl)c(=O)n(C(C)C)c3n2)c(C)n1 [I-218] | 100 to 500
37 | CCS(=O)(=O)c1ccc(Nc2ncc3cc(C(F)F)nc(N4CCCC4)c3n2)c(C)c1 [I-42] | < 100
38 | Cn1cc(S(=O)(=O)N2CCC(Nc3ncc4c(n3)N(C3CCCC3)C(=O)C43CC3)CC2)cn1 [I-255] | < 100
39 | CNS(=O)(=O)c1cc(C)c(Nc2ncc3cc(Cl)c(=O)n(C(C)C)c3n2)cn1 [I-213] | 100 to 500
